Measured values as given in US4948892A, “Sulfonamid compound useful for treating cardiovascular disorders” (Kowa Comp., Ltd., priority 1988, dated 1990).

Test system: ADP-induced platelet aggregation (rabbit PRP)
Test: Inhibitory effect on ADP-induced platelet aggregation in PRP
Format: cell-based
Details: ADP (2 μM), preincubated 37° C. for 1 minute, inhibition rate (%) at this concentration in parentheses
Procedure: Rabbit PRP (250 μl) was preincubated with drug samples (10 μl of aqueous solution or 1 μl of DMSO solution) at 37° C. for 1 minute, and ADP (2 μM)-induced platelet aggregation was measured by aggregometer (NKK HEMA TRACERl Model PAT-4M). Inhibitory effects of the drugs were estimated from the standard curve of maximal aggregation.

O=S(=O)(NCCCN1CCN(C(c2ccccc2)c2ccccc2)CC1)c1ccc(Cl)cc1 [Example 9]
Platelet aggregation inhibitory concentration: 10^-4 mole/liter
